According to patent publication EP3501280A1, “COMPOSITION COMPRISING AN AGROCHEMICALLY ACTIVE COMPOUND AND A CARBONATE” (priority 2017, dated 2019):
≈ marks a conversion by molar mass, not a printed value.

How the values were obtained:
[1] = at 20°C; cited from earlier work
[2] = Solubility of carbonates in water (OECD guideline 105, flask method); assay type: physicochemical; conditions: for Solubility of carbonates in water: OECD 105 flask method
From the text: The water solubility of a substance is the saturation mass concentration of the substance in water at a given temperature. Determination according to OECD guideline for testing of chemicals 105, flask method.

[3] = test system: Blumeria graminis f. sp. hordei (type A6); experiment: Curative leaf-segment test on barley; assay type: in vivo; conditions: barley (HORVX), 2 WAT; for Effect [%]: pustules relative to no carbonate
Protocol: (§1) Plants tested: barley (HORVX); cultivation of plants: three plants per pot were cultivated in fine Frustorfer soil for three weeks.
The plants were inoculated with fresh conidia of Blumeria graminis f. sp. hordei (type A6). 24-48h after inoculation with mildew, the plants were treated with the following liquid formulation: fungicidal formulation OPUS® SC 125 (BASF SE; comprising epoxiconazole). The effect of a carbonate (numbering according to Table 1 above) was tested by adding the respective carbonate to the liquid formulation prior to treatment of the plants.
10 hours after treatment with fungicidal formulation, beginning from the stalk, 7 cm leaf segments were cut; the most recent leaf and the second most recent leaf of a plant were used. 15 pieces of said 7 cm leaf segments were collected and put onto benzimidazole-agar (0.5% agar, 40 ppm benzimidazole added after treatment by autoclave. The agar plates (10x10cm) were then incubated at 18°C during night time and at 23°C during day time at 60-70% air moisture in an incubator for a certain time.
The determination of the mildew infestation was carried out by mildew pustules per leaf within 5 cm leaf length. WAT (weeks after treatment) were chosen according to constant impairment observed. Table Ex6b: Dosing of agrochemically active compound with and without component (b) in curative leaf-segment test on barley (HORVX) and the infestation of mildew after WAT

[4] = Determination of boiling point of carbonates; assay type: physicochemical; conditions: calculated from boiling point measured at a pressure below 101.3 kPa
Protocol: (§2) Determination of boiling point: measured at a pressure below 101.3 kPa; the boiling point measured at this pressure below 101.3 kPa were used to calculate the boiling point at 101.3 kPa by using the following tool: http://www.calctool.org/CALC/chem/substance/boiling. Determination of dynamic viscosity: By using Anton Paar viscosimeter SVM 3000/G2, viscosity was measured at 23°C. Said Anton Paar viscosimeter is a rotational viskosimeter and works according the Stabinger measurement principle.

[5] = Determination of dynamic viscosity (Anton Paar viscosimeter SVM 3000/G2); assay type: physicochemical; conditions: dynamic viscosity at 23°C
Protocol: as §2

[6] = test system: Blumeria graminis f. sp. hordei (type A6); experiment: Protective leaf-segment test on barley; assay type: in vivo; conditions: barley (HORVX), 2 WAT; for Effect [%]: infestation relative to no carbonate
Protocol: as §1
The plants were treated with the following SC formulation: fungicidal formulation - 25% by weight azoxystrobin, 16.7% by weight Tamol® NN 2901, 10% by weight propyleneglycol, 48.3% by weight water. The effect of a carbonate (numbering according to Table 1 above) was tested by adding the respective carbonate to the […] formulation prior to treatment of the plants.
10 hours after treatment with fungicidal formulation, beginning from the stalk, 7 cm leaf segments have been cut; the most recent and the second most recent leaf of a plant were used. 15 pieces of said 7 cm leaf segments were collected and put onto benzimidazole-agar (0.5% agar, 40 ppm benzimidazole added after treatment by autoclave).
The leaf segments on the agar plates were inoculated with fresh conidia of Blumeria graminis f. sp. hordei (type A6).
The agar plates (10x10cm) were then incubated at 18°C during night time and 23°C during day time at 60-70% air moisture in an incubator for a certain time.
The determination of the mildew infestation was carried out by determining the surface per leaf within 5 cm leaf length infested with mildew. WAT (weeks after treatment) were chosen according to constant impairment observed.

[7] = epoxiconazole 10 g/ha (OPUS® SC 125), amount of carbonate 0 g/ha
[8] = azoxystrobin 10 g/ha SC formulation plus carbonate No 1 at 50 g/ha
[9] = epoxiconazole 10 g/ha (OPUS® SC 125) plus carbonate No 1 at 50 g/ha
[10] = azoxystrobin 10 g/ha SC formulation, amount of carbonate 0 g/ha

## CC(O)(Cn1cncn1)c1ccc(Oc2ccc(Cl)cc2)cc1C(F)(F)F (stereo not shown) [pesticide 7, mefentrifluconazole]
[1]
  Solubility in H2O (data from literature*): 0.81 mg/l at 20 °C

## CC1COC(=O)O1 (stereo not shown) [propylene carbonate, reference compound]
[2]; comparison value for propylene carbonate, source not stated
  water solubility: 175 mg/mL (≈ 1710 mM)

## Fc1ccc([C@]2(Cn3cncn3)O[C@H]2c2ccccc2Cl)cc1 (racemic) [pesticide 4, epoxiconazole, reference compound]
[3]; [7]
  Mildew pustules - average value of 15 leaves: 41.3
  Effect [%]: 100%
[1]
  Solubility in H2O (data from literature*): 8.42 mg/l at 20 °C

## CC(Cc1ccc(C(C)(C)C)cc1)CN1C[C@@H](C)O[C@@H](C)C1 (stereo partly shown) [pesticide 9, fenpropimorph]
[1]
  Solubility in H2O (data from literature*): 4.3mg/l at 20 °C

## Cn1cc(C(=O)Nc2ccccc2-c2cc(F)c(F)c(F)c2)c(C(F)F)n1 [pesticide 8, fluxapyroxad]
[1]
  Solubility in H2O (data from literature*): 3.88 mg/l at 20 °C

## COC(=O)N(OC)c1ccccc1COc1ccn(-c2ccc(Cl)cc2)n1 [pesticide 3, pyraclostrobin]
[1]
  Solubility in H2O (data from literature*): 1.9 mg/l at 20 °C

## CCCC1COC(=O)O1 (stereo not shown) [compound 2]
[4]
  Boiling point °C at 101.3 kPa: >180 °C
[5]
  Viscosity mPa.s at 23°C: 4.2 mPa.s
[2]
  Solubility of carbonates in water: 21 g carbonate per l water

## CCC(=O)OCC1COC(=O)O1 (stereo not shown) [compound 1]
[4]
  Boiling point °C at 101.3 kPa: >180 °C
[5]
  Viscosity mPa.s at 23°C: 32 mPa.s
[2]
  Solubility of carbonates in water: 54 g carbonate per l water
[6]; [8]
  % leaf surface infested with mildew - average value of 15 leaves: 28%
  Effect [%]: 72.35%
[3]; [9]
  Mildew pustules - average value of 15 leaves: 34.7
  Effect [%]: 84%

## CC(C)(C)C(O)(CCc1ccc(Cl)cc1)Cn1cncn1 (stereo not shown) [pesticide 5, tebuconazole]
[1]
  Solubility in H2O (data from literature*): 29 mg/l at 20 °C

## CO/C=C(/C(=O)OC)c1ccccc1Oc1cc(Oc2ccccc2C#N)ncn1 [pesticide 2, azoxystrobin, reference compound]
[6]; [10]
  % leaf surface infested with mildew - average value of 15 leaves: 38.7%
  Effect [%]: 100%
[1]
  Solubility in H2O (data from literature*): 6.7 mg/l at 20 °C

## CC(=O)OCC1COC(=O)O1 (stereo not shown) [compound 3]
[4]
  Boiling point °C at 101.3 kPa: >180 °C
[5]
  Viscosity mPa.s at 23°C: 59.1 mPa.s
[2]
  Solubility of carbonates in water: 72 g carbonate per l water
